Reference: PubChem BioAssay AID743274 (The Scripps Research Institute Molecular Screening Center, 2014)
Active and inactive are the calls of the source.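 Rule for the calls: active = malaria parasite growth inhibition of at least 50% at 10 µM in any single replicate well; inactive = under 50% inhibition in every replicate.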

Test system: P. falciparum 3D7 in RBCs, 3H-hypoxanthine incorporation, 48 h
Experiment: P. falciparum growth inhibition in erythrocytes, late-stage follow-up, P. falciparum M17LAP inhibitor project, cell-based, 3H-hypoxanthine radiolabel, RBCs, Set 2 (AID 743274)
Conditions: at 10 µM; hits give high values

Row | Compound | inhibition
1 | O=C(Cc1ccc2c(c1)CCCC2)NO | 82.5%
2 | CCCCOc1ccc(CNc2c(N(C)O)c(=O)c2=O)cc1 | 63%
3 | CC(C)(C(=O)NO)c1ccccc1 | 0% (inactive)
4 | CCCCOc1ccc(C(C)(C)C(=O)NO)cc1 | 12% (inactive)
5 | CN(O)C(=O)Cc1ccc(OCc2ccccc2)cc1 | 15.5% (inactive)
6 | CCCCOc1cccc(CC(=O)NO)c1 | 32.5% (inactive)
7 | O=C(Cc1ccc(OCc2ccccc2)cc1)NO | 93%
8 | CCC(C)Oc1ccc(CC(=O)NO)cc1 (stereo unspecified) | 71%
9 | CCCCOc1ccc(CN(O)C(=O)c2ccccc2)cc1 | 59.5%
10 | COc1ccc(OCCC(=O)NO)cc1 | 9% (inactive)
11 | CCOc1ccc(CC(=O)NO)cc1 | 70%
12 | CCCCOc1ccc(C(=O)NO)cc1 | 73.5%
13 | N[C@@H](Cc1c[nH]c2ccccc12)C(=O)NO | 2.5% (inactive)
14 | Cc1ccc(CC(=O)NO)cc1 | 53%
15 | CC(C)COc1ccc(CC(=O)NO)cc1 | 69%
16 | CCCCOc1ccc(CCC(=O)NO)cc1 | 26% (inactive)
17 | COc1ccc(CC(=O)NO)cc1 | 50%
18 | CCCCOc1ccc(CC(=O)N(C)O)cc1 | 58%

Row | Compound | inhibition
19 | CCCCOc1ccc(C(C)C(=O)NO)cc1 (stereo unspecified) | 59.5%
20 | CCCCOc1ccc(CC(=O)O)cc1 | 0% (inactive)
21 | CCCCc1ccc(CC(=O)NO)cc1 | 84.5%
22 | CCCOc1ccc(CC(=O)NO)cc1 | 74%
23 | NC(N)=NCCC[C@H](N)C(=O)NO | 0% (inactive)
24 | CCCCOc1ccc(C(C)C(=O)OC)cc1 (stereo unspecified) | 4.5% (inactive)
25 | CCCCOc1cccc(CC(=O)OC)c1 | 3% (inactive)
26 | COc1ccc(CCCC(=O)NO)cc1 | 15.5% (inactive)
27 | CC(C)C[C@H](N)C(=O)NO | 1% (inactive)
28 | O=C(NO)c1cccc2ccccc12 | 0% (inactive)
29 | CCCCOc1ccc(CNc2c(N(O)Cc3ccccc3)c(=O)c2=O)cc1 | 0% (inactive)
30 | O=C(NO)c1ccc2ccccc2c1 | 53.5%
31 | CCCCOc1ccc(CN(O)C(C)=O)cc1 | 19.5% (inactive)
32 | O=C(Cc1ccc2ccccc2c1)NO | 52%
33 | O=C(Cc1cccc2ccccc12)NO | 14.5% (inactive)
34 | CCCCCCCCCC(=O)NO | 53%
35 | O=C(Cc1ccc(Oc2ccccc2)cc1)NO | 38.5%
36 | CCCCOc1ccc(C(C)C(=O)O)cc1 (stereo unspecified) | 0% (inactive)
